# Laboratory results as given in PubChem BioAssay (NCI).
#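 Compound exposure: 48 hours, 5 concentrations, 96-well plates. The concentration for full growth arrest is given as TGI.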
# System: MOLT-4 leukemia
# Test: DTP human tumour cell line panel, 48 h
row,Structure (SMILES),TGI
1,CC1(c2cccs2)CC(c2cccs2)=C(C#N)C(=C(C#N)C#N)N1 (stereo not drawn),> 100 µM
2,CCCCc1c(N(C)C)c(OC(C)=O)c(-c2cn(C)c3ccccc23)oc1=O,> 100 µM
3,CCCC(=O)n1[nH]c(=O)n(-c2ccc(Cl)cc2)c1=O,> 100 µM
4,O=C(O)c1ccc(N=C(C(=Nc2ccc(C(=O)O)cc2)c2ccccc2)c2ccccc2)cc1,> 100 µM

# System: NCI-H23 lung
# Test: DTP human tumour cell line panel, 48 h
row,Structure (SMILES),TGI
1,COc1cccc2c1OC(c1ccc(Cl)cc1)C([N+](=O)[O-])=C2 (stereo not drawn),21.2 µM
2,CCCCCCCCCC1(N=[N+]=[N-])C(=O)c2ccccc2N(C)C1=O (stereo not drawn),97.4 µM
3,C[N+](CCCl)(CCCl)Cc1cccc2cccc([N+](=O)[O-])c12,> 100 µM
4,CC(=O)O[C@H]1C[C@H]2[C@@H](OC(C)=O)/C=C3\C[C@](C)(C(=O)[C@H](O)C(=C1C)C2(C)C)[C@@H](O)C[C@@H]3OC(=O)[C@H](O)[C@H](c1ccccc1)N(C)C,> 100 µM
5,Nc1ncnc2c1ccn2C/C=C\CO,> 100 µM
6,Cc1c([N+](=O)[O-])ccc2c(NCCCN(C)C)ccnc12,34.6 µM
7,OCCCCCCCCCCCOc1ccc(C2OCC3(CO2)COC(c2ccc(OCCCCCCCCCCCO)cc2)OC3)cc1 (stereo not drawn),> 50 µM
8,CC(=O)c1cccc(NC(=O)C(=O)NNc2n[nH]c(=S)n2N)c1,11.4 µM
9,COC(=O)c1ccc(C(=O)NC(Cc2ccc(Oc3cc(CC(NC(=O)c4ccccc4C(=O)OC)C(=O)OC)ccc3OC)cc2)C(=O)OC)cc1 (stereo not drawn),> 100 µM
10,O=c1cc(N2CCOCC2)[nH]c(=O)n1-c1ccc(F)cc1,> 100 µM
11,O=C(O)CC1NC(/C(=C/c2ccccc2)NC(=O)c2ccccc2)OC1=O (stereo not drawn),> 100 µM
12,CNC(C#N)c1ccc(OC)cc1 (stereo not drawn),> 100 µM
13,CC(C)(Br)C(Br)CCC1(C2CO2)CO1 (stereo not drawn),> 5 µM
14,CCOC(=O)c1c(-c2ccc(OC)cc2)c(C#N)c(=S)n(C2OC(COC(C)=O)C(OC(C)=O)C(OC(C)=O)C2OC(C)=O)c1-c1ccccc1 (stereo not drawn),> 100 µM
15,CC1(c2cccs2)CC(c2cccs2)=C(C#N)C(=C(C#N)C#N)N1 (stereo not drawn),38.8 µM
16,CCCCc1c(N(C)C)c(OC(C)=O)c(-c2cn(C)c3ccccc23)oc1=O,56.7 µM
17,CCCC(=O)n1[nH]c(=O)n(-c2ccc(Cl)cc2)c1=O,> 100 µM
18,O=C(O)c1ccc(N=C(C(=Nc2ccc(C(=O)O)cc2)c2ccccc2)c2ccccc2)cc1,> 100 µM

# System: NCI-H522 lung
# Test: DTP human tumour cell line panel, 48 h
row,Structure (SMILES),TGI
1,COc1cccc2c1OC(c1ccc(Cl)cc1)C([N+](=O)[O-])=C2 (stereo not drawn),3.23 µM
2,C[N+](CCCl)(CCCl)Cc1cccc2cccc([N+](=O)[O-])c12,> 100 µM
3,O=C1NC(=O)C(c2c[nH]c3ccccc23)=C1c1cnc[nH]1,> 100 µM
4,CC(=O)O[C@H]1C[C@H]2[C@@H](OC(C)=O)/C=C3\C[C@](C)(C(=O)[C@H](O)C(=C1C)C2(C)C)[C@@H](O)C[C@@H]3OC(=O)[C@H](O)[C@H](c1ccccc1)N(C)C,> 100 µM
5,Nc1ncnc2c1ccn2C/C=C\CO,> 100 µM
6,Cc1c([N+](=O)[O-])ccc2c(NCCCN(C)C)ccnc12,31.9 µM
7,CC(=O)c1cccc(NC(=O)C(=O)NNc2n[nH]c(=S)n2N)c1,21 µM
8,O=c1cc(N2CCOCC2)[nH]c(=O)n1-c1ccc(F)cc1,> 100 µM
9,O=C(O)CC1NC(/C(=C/c2ccccc2)NC(=O)c2ccccc2)OC1=O (stereo not drawn),33.5 µM
10,CNC(C#N)c1ccc(OC)cc1 (stereo not drawn),> 100 µM
11,CC(C)(Br)C(Br)CCC1(C2CO2)CO1 (stereo not drawn),> 5 µM
12,CCCCc1c(N(C)C)c(OC(C)=O)c(-c2cn(C)c3ccccc23)oc1=O,49.5 µM
13,CC(C)(C)[Si](C)(C)OCC1OC(n2ccc(N)nc2=O)C(O[Si](C)(C)C(C)(C)C)C1O[Si](C)(C)C(C)(C)C (stereo not drawn),3.36 µM

# System: NCI/ADR-RES ovarian
# Test: DTP human tumour cell line panel, 48 h
row,Structure (SMILES),TGI
1,COc1cccc2c1OC(c1ccc(Cl)cc1)C([N+](=O)[O-])=C2 (stereo not drawn),39.5 µM
2,CCCCCCCCCC1(N=[N+]=[N-])C(=O)c2ccccc2N(C)C1=O (stereo not drawn),> 100 µM
3,C[N+](CCCl)(CCCl)Cc1cccc2cccc([N+](=O)[O-])c12,> 100 µM
4,O=C1NC(=O)C(c2c[nH]c3ccccc23)=C1c1cnc[nH]1,> 100 µM
5,CC(=O)O[C@H]1C[C@H]2[C@@H](OC(C)=O)/C=C3\C[C@](C)(C(=O)[C@H](O)C(=C1C)C2(C)C)[C@@H](O)C[C@@H]3OC(=O)[C@H](O)[C@H](c1ccccc1)N(C)C,> 100 µM
6,Nc1ncnc2c1ccn2C/C=C\CO,> 100 µM
7,Cc1c([N+](=O)[O-])ccc2c(NCCCN(C)C)ccnc12,> 100 µM
8,OCCCCCCCCCCCOc1ccc(C2OCC3(CO2)COC(c2ccc(OCCCCCCCCCCCO)cc2)OC3)cc1 (stereo not drawn),> 50 µM
9,COC(=O)c1ccc(C(=O)NC(Cc2ccc(Oc3cc(CC(NC(=O)c4ccccc4C(=O)OC)C(=O)OC)ccc3OC)cc2)C(=O)OC)cc1 (stereo not drawn),> 100 µM
10,O=c1cc(N2CCOCC2)[nH]c(=O)n1-c1ccc(F)cc1,> 100 µM
11,O=C(O)CC1NC(/C(=C/c2ccccc2)NC(=O)c2ccccc2)OC1=O (stereo not drawn),56.4 µM
12,CNC(C#N)c1ccc(OC)cc1 (stereo not drawn),> 100 µM
13,CC(C)(Br)C(Br)CCC1(C2CO2)CO1 (stereo not drawn),> 5 µM
14,CCOC(=O)c1c(-c2ccc(OC)cc2)c(C#N)c(=S)n(C2OC(COC(C)=O)C(OC(C)=O)C(OC(C)=O)C2OC(C)=O)c1-c1ccccc1 (stereo not drawn),> 100 µM
15,CC1(c2cccs2)CC(c2cccs2)=C(C#N)C(=C(C#N)C#N)N1 (stereo not drawn),49.5 µM
16,CCCCc1c(N(C)C)c(OC(C)=O)c(-c2cn(C)c3ccccc23)oc1=O,56.3 µM
17,CCCC(=O)n1[nH]c(=O)n(-c2ccc(Cl)cc2)c1=O,> 100 µM
18,CC(C)(C)[Si](C)(C)OCC1OC(n2ccc(N)nc2=O)C(O[Si](C)(C)C(C)(C)C)C1O[Si](C)(C)C(C)(C)C (stereo not drawn),> 100 µM
19,O=C(O)c1ccc(N=C(C(=Nc2ccc(C(=O)O)cc2)c2ccccc2)c2ccccc2)cc1,> 100 µM

# System: RPMI-8226 leukemia
# Test: DTP human tumour cell line panel, 48 h
row,Structure (SMILES),TGI
1,CCCCCCCCCC1(N=[N+]=[N-])C(=O)c2ccccc2N(C)C1=O (stereo not drawn),> 100 µM
2,C[N+](CCCl)(CCCl)Cc1cccc2cccc([N+](=O)[O-])c12,> 100 µM
3,O=C1NC(=O)C(c2c[nH]c3ccccc23)=C1c1cnc[nH]1,> 100 µM
4,CC(=O)O[C@H]1C[C@H]2[C@@H](OC(C)=O)/C=C3\C[C@](C)(C(=O)[C@H](O)C(=C1C)C2(C)C)[C@@H](O)C[C@@H]3OC(=O)[C@H](O)[C@H](c1ccccc1)N(C)C,> 100 µM
5,Nc1ncnc2c1ccn2C/C=C\CO,> 100 µM
6,Cc1c([N+](=O)[O-])ccc2c(NCCCN(C)C)ccnc12,> 100 µM
7,OCCCCCCCCCCCOc1ccc(C2OCC3(CO2)COC(c2ccc(OCCCCCCCCCCCO)cc2)OC3)cc1 (stereo not drawn),> 50 µM
8,CC(=O)c1cccc(NC(=O)C(=O)NNc2n[nH]c(=S)n2N)c1,58.8 µM
9,COC(=O)c1ccc(C(=O)NC(Cc2ccc(Oc3cc(CC(NC(=O)c4ccccc4C(=O)OC)C(=O)OC)ccc3OC)cc2)C(=O)OC)cc1 (stereo not drawn),> 100 µM
10,O=c1cc(N2CCOCC2)[nH]c(=O)n1-c1ccc(F)cc1,> 100 µM
11,O=C(O)CC1NC(/C(=C/c2ccccc2)NC(=O)c2ccccc2)OC1=O (stereo not drawn),63.4 µM
12,CC(C)(Br)C(Br)CCC1(C2CO2)CO1 (stereo not drawn),> 5 µM
13,CCOC(=O)c1c(-c2ccc(OC)cc2)c(C#N)c(=S)n(C2OC(COC(C)=O)C(OC(C)=O)C(OC(C)=O)C2OC(C)=O)c1-c1ccccc1 (stereo not drawn),> 100 µM
14,CC1(c2cccs2)CC(c2cccs2)=C(C#N)C(=C(C#N)C#N)N1 (stereo not drawn),61.5 µM
15,CCCC(=O)n1[nH]c(=O)n(-c2ccc(Cl)cc2)c1=O,> 100 µM
16,O=C(O)c1ccc(N=C(C(=Nc2ccc(C(=O)O)cc2)c2ccccc2)c2ccccc2)cc1,> 100 µM

# System: SF-539 CNS
# Test: DTP human tumour cell line panel, 48 h
row,Structure (SMILES),TGI
1,CCCCCCCCCC1(N=[N+]=[N-])C(=O)c2ccccc2N(C)C1=O (stereo not drawn),> 100 µM
2,C[N+](CCCl)(CCCl)Cc1cccc2cccc([N+](=O)[O-])c12,> 100 µM
3,O=C1NC(=O)C(c2c[nH]c3ccccc23)=C1c1cnc[nH]1,> 100 µM
4,CC(=O)O[C@H]1C[C@H]2[C@@H](OC(C)=O)/C=C3\C[C@](C)(C(=O)[C@H](O)C(=C1C)C2(C)C)[C@@H](O)C[C@@H]3OC(=O)[C@H](O)[C@H](c1ccccc1)N(C)C,> 100 µM
5,Nc1ncnc2c1ccn2C/C=C\CO,> 100 µM
6,Cc1c([N+](=O)[O-])ccc2c(NCCCN(C)C)ccnc12,31.2 µM
7,OCCCCCCCCCCCOc1ccc(C2OCC3(CO2)COC(c2ccc(OCCCCCCCCCCCO)cc2)OC3)cc1 (stereo not drawn),> 50 µM
8,CC(=O)c1cccc(NC(=O)C(=O)NNc2n[nH]c(=S)n2N)c1,18.6 µM
9,COC(=O)c1ccc(C(=O)NC(Cc2ccc(Oc3cc(CC(NC(=O)c4ccccc4C(=O)OC)C(=O)OC)ccc3OC)cc2)C(=O)OC)cc1 (stereo not drawn),> 100 µM
10,O=c1cc(N2CCOCC2)[nH]c(=O)n1-c1ccc(F)cc1,> 100 µM
11,O=C(O)CC1NC(/C(=C/c2ccccc2)NC(=O)c2ccccc2)OC1=O (stereo not drawn),44.2 µM
12,CNC(C#N)c1ccc(OC)cc1 (stereo not drawn),> 100 µM
13,CC(C)(Br)C(Br)CCC1(C2CO2)CO1 (stereo not drawn),> 5 µM
14,CCOC(=O)c1c(-c2ccc(OC)cc2)c(C#N)c(=S)n(C2OC(COC(C)=O)C(OC(C)=O)C(OC(C)=O)C2OC(C)=O)c1-c1ccccc1 (stereo not drawn),> 100 µM
15,CC1(c2cccs2)CC(c2cccs2)=C(C#N)C(=C(C#N)C#N)N1 (stereo not drawn),70 µM
16,CCCCc1c(N(C)C)c(OC(C)=O)c(-c2cn(C)c3ccccc23)oc1=O,47.5 µM

# System: SK-MEL-2 melanoma
# Test: DTP human tumour cell line panel, 48 h
row,Structure (SMILES),TGI
1,CCCCCCCCCC1(N=[N+]=[N-])C(=O)c2ccccc2N(C)C1=O (stereo not drawn),69 µM
2,C[N+](CCCl)(CCCl)Cc1cccc2cccc([N+](=O)[O-])c12,> 100 µM
